melting point [°C] | Compound
167 to 168 | Cc1ncc(C(=S)Nc2c(Cl)cncc2Cl)cc1OC(C)C [Compound CV, N-(3,5-dichloro-4-pyridyl)-5-isopropyloxy-6-methylthionicotinamide]
143 to 144 | COc1cc(F)c(C(=O)Nc2c(Cl)cncc2Cl)cc1OC1CCCC1 [A, N-(3,5-dichloropyrid-4-yl)-3-cyclopentyloxy-6-fluoro-4-methoxybenzamide]
210 to 211 | COc1ncc(C(=O)Nc2c(F)cncc2F)cc1OC1CCCC1 [Compound CR, 5-cyclopentyloxy-N-(3,5-difluoropyrid-4-yl)-6-methoxynicotinamide]
177 to 178 | COc1ccc(C(=O)Nc2c(Cl)cncc2Cl)cc1OC1C=CCC1 (racemic) [BI, (±)-N-(3,5-dichloropyrid-4-yl)-3-cyclopent-2-enyloxy-4-methoxybenzamide]
47 to 49 | COc1ccc(/C=C/c2c(Cl)cccc2Cl)cc1OC1CCCC1 [Compound GF, trans-1-(3-cyclopentyloxy-4-methoxyphenyl)-2-(2,6-dichlorophenyl)ethene]
182 to 183 | COc1ncc(C(=O)Nc2c(Cl)cncc2Cl)cc1OC1CCCC1 [Compound CO, 5-cyclopentyloxy-N-(3,5-dichloropyrid-4-yl)-6-methoxynicotinamide]
170 to 172 | COc1ccc(C(=O)Nc2c(Cl)cc(N)cc2Cl)cc1OC1CCCC1 [BS, N-(2,6-dichloro-4-aminophenyl)-3-cyclopentyloxy-4-methoxybenzamide]
129 to 130 | COc1cnc(C(=O)Nc2c(Cl)cncc2Cl)cc1OC1CCCC1 [DA, N-(3,5-dichloropyrid-4-yl)-4-cyclopentyloxy-5-methoxypyridine-2-carboxamide]
164 to 166 | COc1ccc(C(=O)Nc2c(Cl)cncc2Cl)nc1OC1CCCC1 [Compound CS, 6-cyclopentyloxy-N-(3,5-dichloropyrid-4-yl)-5-methoxypyridine-2-carboxamide]
117 to 119 | COc1ccc(C(=O)C(=O)c2ccncc2)cc1OC1CCCC1 [Compound GK, 1-(3-cyclopentyloxy-4-methoxyphenyl)-2-(pyrid-4-yl)ethane-1,2-dione]
250 to 252 | COc1ccc(C(=O)Nc2c(Cl)cc(NC(C)=O)cc2Cl)cc1OC1CCCC1 [BU, N-(4-acetylamino-2,6-dichlorophenyl)-3-cyclopentyloxy-4-methoxybenzamide]
124 to 125 | CSc1ncc(C(=O)Cc2c(Cl)cncc2Cl)cc1OC(C)C [Compound CW, 2-(3,5-dichloro-4-pyridyl)-1-(5-isopropyloxy-6-methylthio-3-pyridyl)ethanone]
96 to 98 | COc1ccc(C(=O)Nc2c(Cl)cc(C=O)cc2Cl)cc1OC1CCCC1 [BY, N-(2,6-dichloro-4-formylphenyl)-3-cyclopentyloxy-4-methoxy-benzamide]
139 to 140 | COc1ncc(C(=O)Nc2c(C)noc2C)cc1OC1CCCC1 [Compound CQ, 5-cyclopentyloxy-N-(3,5-dimethylisoxazol-4-yl)-6-methoxynicotinamide]
174 to 176 | COc1ccc(C(=O)Nc2c(Cl)cc(CO)cc2Cl)cc1OC1CCCC1 [BW, N-(2,6-dichloro-4-hydroxymethylphenyl)-3-cyclopentyloxy-4-methoxybenzamide]
132 | COc1cnc(C(=O)Cc2c(Cl)cncc2Cl)cc1OC1CCCC1 [Compound FG, 1-(4-cyclopentyloxy-5-methoxypyridin-2-yl)-2-(3,5-dichloropyridin-4-yl)ethanone]
145 to 146 | COc1ncc(C(=O)Nc2c(Cl)cccc2Cl)cc1OC1CCCC1 [Compound CP, N-(2,6-dichlorophenyl)-5-cyclopentyloxy-6-methoxynicotinamide]
193 to 195 | COc1ccc(C(=O)Nc2c(Cl)cncc2Cl)cc1OC1CC=CC1 [BK, N-(3,5-dichloropyrid-4-yl)-3-cyclopent-3-enyloxy-4-methoxybenzamide]
115 to 116.5 | COc1cc(F)c(C(=O)Cc2c(Cl)cncc2Cl)cc1OC1CCCC1 [Compound CH, 2-(3,5-dichloropyrid-4-yl)-1-(3-cyclopentyloxy-6-fluoro-4-methoxyphenyl)ethanone]
178 to 180 | COc1c[n+]([O-])c(C(=O)Nc2c(Cl)cncc2Cl)cc1OCC1CC1 [FZ, N-(3,5-dichloropyridin-4-yl)-4-cyclopropylmethoxy-5-methoxy-1-oxidopyridinium-2-carboxamide]
118 to 119 | COc1ncc(C(=O)Cc2c(Cl)cncc2Cl)cc1OC1CCCC1 [Compound CT, 1-(5-cyclopentyloxy-6-methoxypyridin-3-yl)-2-(3,5-dichloropyrid-4-yl)ethanone]
144 to 145 | Cc1ncc(C(=S)Nc2c(Cl)cncc2Cl)cc1OC1CCCC1 [Compound CU, 5-cyclopentyloxy-N-(3,5-dichloro-4-pyridyl)-6-methylthionicotinamide]
131 to 132 | O=C(Nc1c(Cl)cncc1Cl)c1cc(OC2CCCC2)c(OC(F)F)cn1 [Compound GO, N-(3,5-dichloropyridin-4-yl)-4-cyclopentyloxy-5-difluoromethoxypyridine-2-carboxamide]
119 to 121 | COc1ccc(C(=O)Nc2ccccc2S(C)(=O)=O)cc1OC1CCCC1 [BM, N-(2-methylsulfonylphenyl)-3-cyclopentyloxy-4-methoxybenzamide]
